According to patent US9968097B2 (priority 2012, dated 2018):
Structures can show the parent of a compound that is named as a salt. Where two headings read alike, the source gives them in different places.

Experiments:
Format in all cases: in vivo
Alternaria solani = test: Alternaria test (tomatoes)/preventive; settings: preventive, evaluated 3 days after inoculation
Description: Alternaria Test (Tomatoes)/Preventive

Phytophthora infestans = settings: tomatoes, preventive, evaluated 3 days after inoculation
Sphaerotheca fuliginea = test: Sphaerotheca test (cucumbers)/preventive; settings: preventive, evaluated 7 days after inoculation
Description: Sphaerotheca Test (Cucumbers)/Preventive

Botrytis cinerea = test: Botrytis test (beans)/preventive; settings: 10 ppm a.i., preventive, lesion size 2 days after inoculation
Description: Botrytis Test (Beans)/Preventive

Venturia inaequalis = test: Venturia test (apples)/preventive; settings: 100 ppm a.i., preventive, evaluated 10 days after inoculation
Description: Venturia Test (Apples)/Preventive

Question: How did the “Efficacy in % found” value (Alternaria solani; Table D1, 200 ppm a.i.) turn out when `CCCOC(=O)NCCCN(C)C` [F220 propamocarb-HCl, propamocarb hydrochloride] was run?
Answer: The value was 30%.

Question: What about the “Efficacy in % found” value (Phytophthora infestans; 400 ppm a.i.) of the same compound?
Answer: The value was 3%.

Question: What about the “Efficacy in % found” value (Sphaerotheca fuliginea; 400 ppm a.i.) of the same compound?
Answer: Its value is 0%.

Question: `COCC(=O)N(c1c(C)cccc1C)C(C)C(=O)OC` (stereo not drawn) [F241 metalaxyl, metalaxyl] was tested. Which “Efficacy in % found” value (Alternaria solani; Table D2, 100 ppm a.i.) did it give?
Answer: The value was 8%.

Question: What does the source list for `N#Cc1c[nH]cc1-c1cccc2c1OC(F)(F)O2` [F248 fludioxonil, fludioxonil]?
Answer: Efficacy in % found (Phytophthora infestans; 100 ppm a.i.): 12%; Efficacy in % found (Botrytis cinerea): 87%; Efficacy in % found (Sphaerotheca fuliginea; 100 ppm a.i.): 83%; Efficacy in % found (Venturia inaequalis): 0%

Question: “metalaxyl-M (mefenoxam) [F242 mefenoxam]” was tested. Which “Efficacy in % found” value (Alternaria solani; Table D2, 100 ppm a.i.) did it give?
Answer: Its value is 0%.
